The target of assay [1] is T1, CD73 (Homo sapiens, UniProt P21589).
T1 sequence (P21589 27-549): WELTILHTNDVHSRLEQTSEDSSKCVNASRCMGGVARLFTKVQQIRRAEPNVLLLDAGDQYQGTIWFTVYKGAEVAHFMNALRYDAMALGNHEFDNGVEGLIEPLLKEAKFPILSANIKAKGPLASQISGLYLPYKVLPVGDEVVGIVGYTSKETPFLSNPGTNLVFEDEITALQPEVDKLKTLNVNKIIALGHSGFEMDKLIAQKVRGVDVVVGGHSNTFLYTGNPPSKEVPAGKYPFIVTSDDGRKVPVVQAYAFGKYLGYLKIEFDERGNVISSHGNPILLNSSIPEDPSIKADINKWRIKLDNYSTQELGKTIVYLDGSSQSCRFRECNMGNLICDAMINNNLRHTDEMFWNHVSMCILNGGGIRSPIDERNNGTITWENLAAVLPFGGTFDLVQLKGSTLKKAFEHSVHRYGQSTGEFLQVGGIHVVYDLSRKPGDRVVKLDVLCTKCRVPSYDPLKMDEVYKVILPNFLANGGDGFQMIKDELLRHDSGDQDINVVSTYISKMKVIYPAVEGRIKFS
The assay can be described thus: CD73 Biochemical IC50 Assay. The following applies: CD73 enzyme (R&D system) final 0.3 nM, final AMP 15 uM, 60 mins incubation, Rapid fire. The protocol: CD73 Biochemical IC50 Assay
Compound serial dilutions were pre-spotted into Thermo Nunc assay plate. 50 μL CD73 enzyme buffer (CD73 purchased from R&D system=0.6 nM, 25 mM Tris, pH 7.4, 5 mM MgCl2, 1 mM NaH2PO4) was added into the assay plate and incubated for 15 mins. […] After incubation for 60 mins, the supernatant 20 uL was transferred into 384-well NUNC plate pre-filled with 60 ul Quench buffer (80% organic and 20% water+0.1% FA) with internal standard. The plate was spun down at 4500 rpm for 20 mins, then 20 μl of supernatant was transferred to another Nunc plate prefilled with 80 μl of water. The samples were run using Rapid fire.

Assay [2] deals with T1, CD73. The assay can be described thus: MDA-MB-231 Cell Based CD73 Activity Assay (DMEM). Set-up: endogenous in cells; host or cells: MDA-MB-231-GFP. As to conditions: MDA-MB-231-GFP cells, DMEM with 10% human plasma, overnight compound treatment, 200 uM AMP, 100 mins. The protocol:
Cells were plated into assay plate with compounds pre-spotted, for an overnight compound treatment. 50 uL of 400 uM AMP (final concentration will be 200 uM) was added using Bio-tek dispenser. Plates were incubated for 100 mins. 20 uL of supernatant was transferred into 384-well NUNC plate pre-filled with 60 ul Quench buffer (80% organic and 20% water+0.1% FA) with internal standard. The plates were spun down at 4500 rpm for 20 mins, then 20 ul of supernatant was transferred to another Nunc plate prefilled with 80 ul of water. The samples were analyzed using Rapid fire.

For orientation: IC50 means the concentration that gives 50% inhibition. Read a high IC50 as weaker potency. As usually defined, the EC50 is the concentration that produces a half-maximal response. A higher EC50 goes with lower potency in that assay. Turning to `CCc1nc(-c2c[nH]c(=O)[nH]c2=O)cc(N2C[C@H](Oc3cc4c(cn3)cnn4CC(F)(F)F)C(F)(F)C2)n1` [Example 1, (S)-6-(3,3-difluoro-4-((1-(2,2,2-trifluoroethyl)-1H-pyrazolo[4,3-c]pyridin-6-yl)oxy)pyrrolidin-1-yl)-2-ethyl-[4,5′-bipyrimidine]-2′,4′ (1′H,3′H)-dione], the IC50 at CD73 [1] is 0.0127 µM. For the same molecule, on CD73 [2], the midpoint of the response, the EC50, lay at 0.0337 µM.
The molecule `O=c1[nH]cc(-c2cc(N3C[C@H](Oc4cc5c(cn4)cnn5CC(F)(F)F)C(F)(F)C3)nc(C3CC3)n2)c(=O)[nH]1` [Example 3, (S)-2-cyclopropyl-6-(3,3-difluoro-4-((1-(2,2,2-trifluoroethyl)-1H-pyrazolo[4,3-c]pyridin-6-yl)oxy)pyrrolidin-1-yl)-[4,5′-bipyrimidine]-2′,4′ (1′H,3′H)-dione] returned an IC50 against CD73 [1] of 0.0257 µM. This molecule also came in with a half-maximal effective concentration (EC50) at CD73 [2] of over 0.05 µM.
The like results for `O=c1[nH]cc(-c2cc(N3C[C@H](Oc4cc5c(cn4)cnn5CC(F)(F)F)C(F)(F)C3)nc(C(F)(F)F)n2)c(=O)[nH]1` [Example 6, (S)-6-(3,3-difluoro-4-((1-(2,2,2-trifluoroethyl)-1H-pyrazolo[4,3-c]pyridin-6-yl)oxy)pyrrolidin-1-yl)-2-(trifluoromethyl)-[4,5′-bipyrimidine]-2′,4′ (1′H,3′H)-dione] were, in that order, 0.00714 µM and 0.0357 µM.
Take `Cc1nc(-c2c[nH]c(=O)[nH]c2=O)cc(N2C[C@H](Oc3ccnc(C4(C(F)(F)F)CC4)c3)C(F)(F)C2)n1` [Example 7, (S)-6-(3,3-difluoro-4-((2-(1-(trifluoromethyl)cyclopropyl)pyridin-4-yl)oxy)pyrrolidin-1-yl)-2-methyl-[4,5′-bipyrimidine]-2′,4′ (1′H,3′H)-dione]: it took 0.00428 µM to reach half-maximal inhibition against CD73 [1] (IC50). Also, at CD73 [2], the response was half-maximal at 0.00107 µM (EC50).
The molecule `Cc1cc(N2C[C@H](Oc3cc4c(cn3)cnn4CC(F)(F)F)C(F)(F)C2)cc(-c2c[nH]c(=O)[nH]c2=O)n1` [Example 10, (S)-5-(4-(3,3-difluoro-4-((1-(2,2,2-trifluoroethyl)-1H-pyrazolo[4,3-c]pyridin-6-yl)oxy)pyrrolidin-1-yl)-6-methylpyridin-2-yl)pyrimidine-2,4(1H,3H)-dione] yielded an IC50 against CD73 [1] of 0.041 µM. The same molecule had an EC50 at CD73 [2] of 0.049 µM.
At CD73 [1], `O=c1[nH]cc(-c2cc(N3C[C@H](Oc4cc5c(cn4)cnn5CC(F)(F)F)C(F)(F)C3)cc(C(F)(F)F)n2)c(=O)[nH]1` [Example 11, (S)-5-(4-(3,3-difluoro-4-((1-(2,2,2-trifluoroethyl)-1H-pyrazolo[4,3-c]pyridin-6-yl)oxy)pyrrolidin-1-yl)-6-(trifluoromethyl)pyridin-2-yl)pyrimidine-2,4(1H,3H)-dione] showed an IC50 of 0.0128 µM. For the same molecule, the EC50 on CD73 [2] is 0.0225 µM.
Molecule `COc1cc(N2C[C@H](Oc3cc4c(cn3)cnn4CC(F)(F)F)C(F)(F)C2)cc(-c2c[nH]c(=O)[nH]c2=O)n1` [Example 12, (S)-5-(4-(3,3-difluoro-4-((1-(2,2,2-trifluoroethyl)-1H-pyrazolo[4,3-c]pyridin-6-yl)oxy)pyrrolidin-1-yl)-6-methoxypyridin-2-yl)pyrimidine-2,4(1H,3H)-dione] returned an IC50 on CD73 [1] of 0.00895 µM. Besides, at CD73 [2], the concentration for a half-maximal effect (EC50) amounted to 0.0271 µM.
`Cc1nc(-c2c[nH]c(=O)[nH]c2=O)cc(N2C[C@H](Oc3cc(C(F)(F)F)ccn3)C(F)(F)C2)n1` [Example 13, 5-[6-[(4S)-3,3-difluoro-4-[[4-(trifluoromethyl)-2-pyridyl]oxy]pyrrolidin-1-yl]-2-methyl-pyrimidin-4-yl]-1H-pyrimidine-2,4-dione] gave an IC50 against CD73 [1] of 0.0313 µM. Further, the EC50 on CD73 [2] is over 0.05 µM.
Consider `Cc1nc(-c2c[nH]c(=O)[nH]c2=O)cc(N2C[C@H](Oc3cc(OC(F)F)ccn3)C(F)(F)C2)n1` [Example 14, (S)-6-(4-((4-(difluoromethoxy)pyridin-2-yl)oxy)-3,3-difluoropyrrolidin-1-yl)-2-methyl-[4,5′-bipyrimidine]-2′,4′ (1′H,3′H)-dione], for which, at CD73 [1], half-maximal inhibition (IC50) was put at 0.00492 µM. This molecule registered a concentration giving a half-maximal response (EC50) on CD73 [2] of over 0.05 µM.
The like results for `Cc1nc(-c2c[nH]c(=O)[nH]c2=O)cc(N2C[C@H](Oc3cc(C(F)F)c(F)cn3)C(F)(F)C2)n1` [Example 15, (S)-6-(4-((4-(difluoromethyl)-5-fluoropyridin-2-yl)oxy)-3,3-difluoropyrrolidin-1-yl)-2-methyl-[4,5′-bipyrimidine]-2′,4′ (1′H,3′H)-dione] were, in that order, 0.0102 µM and over 0.05 µM.
Consider `Cc1nc(-c2c[nH]c(=O)[nH]c2=O)cc(N2C[C@H](Oc3ccc(F)c(C(F)F)c3)C(F)(F)C2)n1` [Example 16, (S)-6-(4-(3-(difluoromethyl)-4-fluorophenoxy)-3,3-difluoropyrrolidin-1-yl)-2-methyl-[4,5′-bipyrimidine]-2′,4′ (1′ H,3′ H)-dione], for which inhibition against CD73 [1] was half-maximal at 0.00628 µM (IC50). Besides, the EC50 at CD73 [2] was over 0.05 µM.
For `Cc1nc(-c2c[nH]c(=O)[nH]c2=O)cc(N2C[C@H](Oc3ccc(F)c(OC(F)F)c3)C(F)(F)C2)n1` [Example 17, (S)-6-(4-(3-(difluoromethoxy)-4-fluorophenoxy)-3,3-difluoropyrrolidin-1-yl)-2-methyl-[4,5′-bipyrimidine]-2′,4′ (1′H,3′H)-dione] the same measures were 0.00421 µM and over 0.05 µM.
`Cc1nc(-c2c[nH]c(=O)[nH]c2=O)cc(N2C[C@H](Oc3ccnc(C(F)(F)F)c3)C(F)(F)C2)n1` [Example 18, (S)-6-(3,3-difluoro-4-((2-(trifluoromethyl)pyridin-4-yl)oxy)pyrrolidin-1-yl)-2-methyl-[4,5′-bipyrimidine]-2′,4′ (1′ H,3′ H)-dione] showed a 50% inhibitory concentration (IC50) at CD73 [1] of 0.0057 µM. This molecule also showed a 50% effective concentration (EC50) at CD73 [2] of 0.0329 µM.
The molecule `Cc1nc(-c2c[nH]c(=O)[nH]c2=O)cc(N2C[C@H](Oc3ccc4cnn(CC(F)(F)F)c4c3)C(F)(F)C2)n1` [Example 19, (S)-6-(3,3-difluoro-4-((1-(2,2,2-trifluoroethyl)-1H-indazol-6-yl)oxy)pyrrolidin-1-yl)-2-methyl-[4,5′-bipyrimidine]-2′,4′ (1′H,3′H)-dione] returned an IC50 on CD73 [1] of 0.00626 µM. On CD73 [2], the EC50 turned out to be 0.026 µM.
`Cc1nc(-c2c[nH]c(=O)[nH]c2=O)cc(N2C[C@H](Oc3ccncc3)C(F)(F)C2)n1` [Example 20, (S)-6-(3,3-difluoro-4-(pyridin-4-yloxy)pyrrolidin-1-yl)-2-methyl-[4,5′-bipyrimidine]-2′,4′ (1′H,3′H)-dione] showed an IC50 against CD73 [1] of 0.0087 µM. This molecule also gave an EC50 on CD73 [2] of over 0.05 µM.
`Cc1nc(-c2c[nH]c(=O)[nH]c2=O)cc(N2C[C@H](Oc3ccnc(C(F)F)c3)C(F)(F)C2)n1` [Example 21, (S)-6-(4-((2-(difluoromethyl)pyridin-4-yl)oxy)-3,3-difluoropyrrolidin-1-yl)-2-methyl-[4,5′-bipyrimidine]-2′,4′ (1′ H,3′ H)-dione] showed a concentration for half-maximal inhibition (IC50) against CD73 [1] of 0.00497 µM. Also, at CD73 [2], the EC50 worked out at 0.0397 µM.
At CD73 [1], `Cc1nc(-c2c[nH]c(=O)[nH]c2=O)cc(N2C[C@H](Oc3cc4c(cnn4CC(F)(F)F)cc3F)C(F)(F)C2)n1` [Example 23, (S)-6-(3,3-difluoro-4-((5-fluoro-1-(2,2,2-trifluoroethyl)-1H-indazol-6-yl)oxy)pyrrolidin-1-yl)-2-methyl-[4,5′-bipyrimidine]-2′,4′ (1′H,3′H)-dione] gave an IC50 of 0.0144 µM. Besides, at CD73 [2], the EC50 was over 0.05 µM.
